Among the data in patent US8586591B2, “Aminopyrazine derivative and medicine” (Nippon Shinyaku Co., Ltd., priority 2009, dated 2013) are IC50 values, retold here.

Assay [1] concerns the target T1, JAK2 tyrosine kinase (Homo sapiens, UniProt O60674).
T1 construct: purchased Carnabioscience Co
As to the kind of experiment: Test 1: inhibitory activity to JAK2 tyrosine kinase (ELISA). The class given is biochemical. The following applies: 25 μM ATP in substrate solution, 30° C. for 1 hour, n=2. An outline of the steps:
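Human JAK2 (diluted to 0.75 nM before addition) phosphorylated a biotinylated peptide on streptavidin plates for 1 h at 30 °C. The substrate mix held 625 nM peptide, 25 μM ATP and 25 mM MgCl2 in 15 mM Tris pH 7.5, 0.01% Tween-20 and 1 mM DTT. Phosphotyrosine was detected by HRP antibody/TMB at 450 nm, and IC50 was obtained by non-linear regression; duplicates were run.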

Assay [2] has as its target T2, JAK3 tyrosine kinase (Homo sapiens, UniProt P52333).
T2 construct: purchased Carnabioscience Co
T2 sequence (P52333 1-1124): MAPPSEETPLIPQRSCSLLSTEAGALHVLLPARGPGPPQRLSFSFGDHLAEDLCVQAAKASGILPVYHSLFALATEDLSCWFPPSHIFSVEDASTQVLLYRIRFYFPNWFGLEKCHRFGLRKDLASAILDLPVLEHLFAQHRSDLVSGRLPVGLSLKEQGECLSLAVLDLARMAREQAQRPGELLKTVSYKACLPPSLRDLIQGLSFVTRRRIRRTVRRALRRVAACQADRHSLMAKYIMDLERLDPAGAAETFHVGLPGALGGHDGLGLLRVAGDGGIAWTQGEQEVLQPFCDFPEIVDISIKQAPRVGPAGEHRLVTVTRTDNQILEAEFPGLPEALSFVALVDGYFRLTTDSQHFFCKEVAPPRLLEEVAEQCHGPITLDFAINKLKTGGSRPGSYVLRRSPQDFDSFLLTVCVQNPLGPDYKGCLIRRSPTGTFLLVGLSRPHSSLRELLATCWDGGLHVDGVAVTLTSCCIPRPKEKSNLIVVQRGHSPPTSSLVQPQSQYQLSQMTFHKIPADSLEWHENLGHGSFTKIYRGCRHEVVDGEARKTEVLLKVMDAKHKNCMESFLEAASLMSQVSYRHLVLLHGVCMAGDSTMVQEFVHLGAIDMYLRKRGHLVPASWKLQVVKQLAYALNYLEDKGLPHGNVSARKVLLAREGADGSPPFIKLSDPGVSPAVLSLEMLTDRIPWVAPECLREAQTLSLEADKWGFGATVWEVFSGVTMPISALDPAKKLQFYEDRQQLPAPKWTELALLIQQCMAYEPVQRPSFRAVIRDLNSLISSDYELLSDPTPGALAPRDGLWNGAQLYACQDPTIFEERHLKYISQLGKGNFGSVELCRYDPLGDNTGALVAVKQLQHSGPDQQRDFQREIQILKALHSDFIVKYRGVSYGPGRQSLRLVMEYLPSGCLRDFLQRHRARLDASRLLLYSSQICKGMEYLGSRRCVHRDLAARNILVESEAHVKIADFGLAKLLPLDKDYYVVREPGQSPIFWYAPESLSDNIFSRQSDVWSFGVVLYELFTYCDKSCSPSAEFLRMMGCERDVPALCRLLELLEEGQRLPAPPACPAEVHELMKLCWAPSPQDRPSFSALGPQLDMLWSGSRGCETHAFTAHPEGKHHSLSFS
Briefly: Test 1: inhibitory activity to JAK3 tyrosine kinase (ELISA). The class given is biochemical. As to conditions: 25 μM ATP in substrate solution, 30° C. for 1 hour, n=2. Put shortly: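 ELISA of JAK3 kinase activity with absorbance read at 450 nm. Compounds were tested from DMSO dilution series at 100-fold the measurement concentrations (1000–0.01 μM), diluted up to 20 times in assay buffer, against a DMSO negative control. IC50 was estimated by non-linear regression of absorbance.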

Structures can show the parent of a compound that is named as a salt.

T1 sequence (O60674 whole entry): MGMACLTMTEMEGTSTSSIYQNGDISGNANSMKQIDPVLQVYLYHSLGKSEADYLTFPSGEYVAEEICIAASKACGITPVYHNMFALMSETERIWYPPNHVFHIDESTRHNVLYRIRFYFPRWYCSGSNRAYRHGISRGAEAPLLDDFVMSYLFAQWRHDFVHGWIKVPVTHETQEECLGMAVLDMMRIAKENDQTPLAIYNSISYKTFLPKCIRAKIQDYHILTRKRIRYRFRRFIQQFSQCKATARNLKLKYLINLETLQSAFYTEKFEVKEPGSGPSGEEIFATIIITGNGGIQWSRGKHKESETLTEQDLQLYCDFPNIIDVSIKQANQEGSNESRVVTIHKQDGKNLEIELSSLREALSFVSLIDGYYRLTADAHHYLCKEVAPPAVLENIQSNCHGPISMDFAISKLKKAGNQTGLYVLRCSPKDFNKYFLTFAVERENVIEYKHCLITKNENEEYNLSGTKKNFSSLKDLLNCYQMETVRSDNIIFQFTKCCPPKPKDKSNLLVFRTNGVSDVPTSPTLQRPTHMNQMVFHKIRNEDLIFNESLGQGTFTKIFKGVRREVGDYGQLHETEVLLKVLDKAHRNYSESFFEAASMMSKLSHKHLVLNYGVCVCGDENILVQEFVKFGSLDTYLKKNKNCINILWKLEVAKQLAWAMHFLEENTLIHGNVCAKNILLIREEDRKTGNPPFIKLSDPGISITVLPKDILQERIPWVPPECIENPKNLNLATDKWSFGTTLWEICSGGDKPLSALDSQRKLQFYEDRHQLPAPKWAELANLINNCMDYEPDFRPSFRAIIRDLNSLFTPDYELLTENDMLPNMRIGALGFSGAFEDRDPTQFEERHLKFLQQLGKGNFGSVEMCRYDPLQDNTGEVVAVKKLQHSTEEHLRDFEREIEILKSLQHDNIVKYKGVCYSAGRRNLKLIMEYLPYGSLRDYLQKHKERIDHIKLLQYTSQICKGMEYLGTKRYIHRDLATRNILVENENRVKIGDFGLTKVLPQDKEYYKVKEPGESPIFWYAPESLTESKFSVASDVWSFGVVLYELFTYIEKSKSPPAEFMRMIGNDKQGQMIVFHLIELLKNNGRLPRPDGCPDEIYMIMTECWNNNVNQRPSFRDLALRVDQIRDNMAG

For `C[C@H](Nc1nc(Nc2cnccn2)cc(-c2ccc3c(c2)OCO3)n1)c1ccc(F)cc1` [Example 92, (S)-6-(Benzo[d]1,3-dioxol-5-yl)-N^2-[1-(4-fluorophenyl)ethyl]-N^4-(pyrazin-2-yl)pyrimidine-2,4-diamine hydrochloride], the IC50 in assay [1] came out at 0.0098 µM; in assay [2], 0.46 µM.
Taken in the same sequence, the figures for `C[C@H](Nc1nc(Nc2cnccn2)cc(-c2ccnc(F)c2)n1)c1ccc(F)cc1` [Example 93, (S)—N^2-[1-(4-Fluorophenyl)ethyl]-6-(2-fluoropyridin-4-yl)-N^4-(pyrazin-2-yl)pyrimidine-2,4-diamine] were 0.003 µM and 0.22 µM.
In the case of `C[C@H](Nc1nc(Nc2cnccn2)cc(OCC2CCCO2)n1)c1ccc(F)cc1` (stereo partly drawn) [Example 94, N^2-[(S)-1-(4-Fluorophenyl)ethyl]-N^4-(pyrazin-2-yl)-6-[(tetra hydrofuran-2-yl)methoxy]pyrimidine-2,4-diamine], the values for the concentration for half-maximal inhibition (IC50) in assay [1] and in assay [2] were 0.0017 µM and 0.077 µM, respectively.
With `C[C@H](Nc1nc(Nc2cnccn2)cc(OCCO)n1)c1ccc(F)cc1` [Example 95, (S)-2-{2-[1-(4-Fluorophenyl)ethylamino]-6-(pyrazin-2-ylamino)pyrimidin-4-yloxy}ethanol hydrochloride], the concentration for half-maximal inhibition (IC50) worked out at 0.0022 µM in assay [1] and 0.11 µM in assay [2].
Taken in the same sequence, the figures for `C[C@H](Nc1nc(NCCN2CCCC2)cc(Nc2cnccn2)n1)c1ccc(F)cc1` [Example 96, (S)—N^2-[1-(4-Fluorophenyl)ethyl]-N^4-(pyrazin-2-yl)-N^6-[2-(pyrrolidin-1-yl)ethyl]pyrimidine-2,4,6-triamine] were 0.0014 µM and 0.033 µM.
As to `CC(C)[C@@H](CO)Nc1cc(Nc2cnccn2)nc(N[C@@H](C)c2ccc(F)cc2)n1` [Example 99, (S)-2-{2-[(S)-1-(4-Fluorophenyl)ethylamino]-6-(pyrazin-2-ylamino)pyrimidin-4-ylamino}-3-methylbutan-1-ol hydrochloride], the results for the concentration for half-maximal inhibition (IC50) in assay [1] and in assay [2] were 0.0024 µM and 0.2 µM, respectively.
Take `C[C@H](Nc1nc(Nc2cnccn2)cc(N2CCN(S(C)(=O)=O)CC2)n1)c1ccc(Cl)cc1` [Example 100, (S)—N^2-[1-(4-Chlorophenyl)ethyl]-6-[4-(methylsulfonyl)piperazin-1-yl]-N^4-(pyrazin-2-yl)pyrimidine-2,4-diamine hydrochloride]: the IC50 in assay [1] amounted to 0.00052 µM; in assay [2], 0.047 µM.
As for `C[C@H](Nc1nc(Nc2cnccn2)cc(O[C@H]2CCCC[C@@H]2O)n1)c1ccc(F)cc1` [Example 101, (1S,2S)-2-{2-[(S)-1-(4-Fluorophenyl)ethylamino]-6-(pyrazin-2-ylamino)pyrimidin-4-yloxy}cyclohexanol hydrochloride], the IC50 in assay [1] was 0.011 µM; in assay [2] it was 0.6 µM.
For the compound `Cc1cnc(CNc2cc(Nc3cnccn3)nc(N[C@@H](C)c3ccc(F)cc3)n2)cn1` [Example 102, (S)—N^2-[1-(4-Fluorophenyl)ethyl]-N^4-[(5-methylpyrazin-2-yl)methyl]-N^6-(pyrazin-2-yl)pyrimidine-2,4,6-triamine hydrochloride], the results for the IC50 in assay [1] and in assay [2] were 0.0026 µM and 0.14 µM, respectively.
On to `C[C@H](Nc1nc(NCc2ccco2)cc(Nc2cnccn2)n1)c1ccc(F)cc1` [Example 103, (S)—N^2-[1-(4-Fluorophenyl)ethyl]-N^4-(furan-2-ylmethyl)-N^6-(pyrazin-2-yl)pyrimidine-2,4,6-triamine hydrochloride], for which the figures for the half-maximal inhibitory concentration (IC50) in assay [1] and in assay [2] were 0.0041 µM and 0.31 µM, respectively.
On to `CC(Nc1cc(Nc2cnccn2)nc(N[C@@H](C)c2ccc(F)cc2)n1)c1cccnc1` (stereo partly drawn) [Example 104, (S)—N^2-[1-(4-Fluorophenyl)ethyl]-N^4-(pyrazin-2-yl)-N^6-[1-(pyridin-3-yl)ethyl]pyrimidine-2,4,6-triamine], for which the IC50 was found to be 0.001 µM in assay [1] and 0.039 µM in assay [2].
As to `C[C@H](Nc1nc(NCc2ccccn2)cc(Nc2cnccn2)n1)c1ccc(F)cc1` [Example 106, (S)—N^2-[1-(4-Fluorophenyl)ethyl]-N^4-(pyrazin-2-yl)-N^6-(pyridin-2-ylmethyl)pyrimidine-2,4,6-triamine], the concentration for half-maximal inhibition (IC50) amounted to 0.0019 µM in assay [1] and 0.11 µM in assay [2].
Regarding `C[C@H](Nc1nc(NCc2cccnc2)cc(Nc2cnccn2)n1)c1ccc(F)cc1` [Example 107, (S)—N^2-[1-(4-Fluorophenyl)ethyl]-N^4-(pyrazin-2-yl)-N^6-(pyridin-3-ylmethyl)pyrimidine-2,4,6-triamine], the IC50 in assay [1] was found to be 0.00077 µM; in assay [2] it was 0.056 µM.
For `C[C@H](Nc1nc(NCc2ccncc2)cc(Nc2cnccn2)n1)c1ccc(F)cc1` [Example 108, (S)—N^2-[1-(4-Fluorophenyl)ethyl]-N^4-(pyrazin-2-yl)-N^6-(pyridin-4-ylmethyl)pyrimidine-2,4,6-triamine], the figures for the IC50 in assay [1] and in assay [2] were 0.0011 µM and 0.056 µM, respectively.
With `C[C@H](Nc1nc(Nc2cnccn2)cc(N[C@@H](CO)C(N)=O)n1)c1ccc(F)cc1` [Example 109, (S)-2-{2-[(S)-1-(4-Fluorophenyl)ethylamino]-6-(pyrazin-2-ylamino)pyrimidin-4-ylamino}-3-hydroxypropanamide], the IC50 is 0.0024 µM in assay [1] and 0.13 µM in assay [2].
Regarding `C[C@H](Nc1nc(Nc2cnccn2)cc(N2C[C@H](O)[C@@H](O)C2)n1)c1ccc(F)cc1` [Example 110, (3S,4S)-1-{2-[(S)-1-(4-Fluorophenyl)ethylamino]-6-(pyrazin-2-ylamino)pyrimidin-4-yl}pyrrolidin-3,4-diol], the results for the 50% inhibitory concentration (IC50) in assay [1] and in assay [2] were 0.00067 µM and 0.044 µM, respectively.
`C[C@H](Nc1nc(Nc2cnccn2)cc(N2CCC3(CC2)OCCO3)n1)c1ccc(F)cc1` [Example 111, N^2-[(S)-1-(4-Fluorophenyl)ethyl]-N^4-(pyrazin-2-yl)-6-(1,4-dioxa-8-azaspiro[4.5]decan-8-yl)pyrimidine-2,4-diamine]: the IC50 in assay [1] worked out at 0.0016 µM; in assay [2], 0.11 µM.
For `C[C@H](Nc1cc(-c2cnn(Cc3ccccc3)c2)cc(Nc2cnccn2)n1)c1ccc(F)cc1` [Example 113, (S)-4-(1-Benzyl-1H-pyrazol-4-yl)-N^2-[1-(4-fluorophenyl)ethyl]-N^6-(pyrazin-2-yl)pyridine-2,6-diamine], the IC50 in assay [1] was 0.0049 µM; in assay [2], 0.2 µM.
As for `C[C@H](Nc1nc(Nc2cnccn2)cc(N2CCN(S(=O)(=O)c3ccccc3)CC2)n1)c1ccc(F)cc1` [Example 114, (S)—N^2-[1-(4-Fluorophenyl)ethyl]-6-[4-(phenylsulfonyl)piperazin-1-yl]-N^4-(pyrazin-2-yl)pyrimidine-2,4-diamine hydrochloride], the IC50 in assay [1] turned out to be 0.0048 µM; in assay [2], 0.066 µM.
In the case of `C[C@H](Nc1cc(-c2ccc(C(N)=O)cc2)cc(Nc2cnccn2)n1)c1ccc(F)cc1` [Example 115, (S)-4-{2-[1-(4-Fluorophenyl)ethylamino]-6-(pyrazin-2-ylamino)pyridin-4-yl}benzamide dihydrochloride], the half-inhibitory concentration (IC50) in assay [1] came to 0.0023 µM; in assay [2] it was 0.21 µM.
Take `C[C@H](Nc1cc(-c2cc[nH]c2)cc(Nc2cnccn2)n1)c1ccc(F)cc1` [Example 116, (S)—N^2-[1-(4-Fluorophenyl)ethyl]-N^6-(pyrazin-2-yl)-4-(1H-pyrrol-3-yl)pyridine-2,6-diamine dihydrochloride]: the results for the IC50 in assay [1] and in assay [2] were 0.0053 µM and 0.34 µM, respectively.
